Key:
[1] = Hit confirmation in dose-response curve in HepG2 cytotoxicity assay, at 72h; format: toxicity, cell-based; set-up: timepoint 72 hour; conditions: human, HepG2 cells
Plasmodium falciparum [2] = experiment: Hit confirmation in dose-response curve in Dd2 pLDH assay, at 72h; format: functional, organism-based; set-up: timepoint 72 hour; conditions: Dd2, Erythrocyte
Plasmodium falciparum [3] = experiment: Hit confirmation in dose-response curve in NF54 nanoGlo assay, at 72h; format: functional, organism-based, Erythrocyte; set-up: timepoint 72 hour; conditions: Plasmodium falciparum, NF54, Erythrocyte, 72 h
Plasmodium falciparum [4] = experiment: Hit confirmation in dose-response curve in NF54 nanoGlo assay, at 12h; format: functional, organism-based, Erythrocyte; set-up: timepoint 12 hour; conditions: Plasmodium falciparum, NF54, Erythrocyte, 12 h
Plasmodium falciparum [5] = experiment: Hit confirmation in dose-response curve in NF54 pLDH assay, at 72h; format: functional, organism-based; set-up: timepoint 72 hour; conditions: NF54, Erythrocyte

Compound	IC50 at 72 h [1]	IC50 (Plasmodium falciparum [2])	IC50 (Plasmodium falciparum [3])	IC50 (Plasmodium falciparum [4])	IC50 (Plasmodium falciparum [5])
Cc1nc(C(=O)Nc2[nH]c(=O)ncc2F)c(-c2ccccc2)o1	> 10000 nM	> 10000 nM	8.32 nM	9550 nM	12.6 nM
CC1CCC(c2noc([C@H]3CCO[C@@H]3c3cncc(Br)c3)n2)CC1 (stereo not given in full)	> 10000 nM	3890 nM	2880 nM	> 10000 nM	4470 nM
NC(=O)c1ccc(C(F)(F)F)n(C[C@H](O)c2cc(Cl)ccc2Cl)c1=O	> 10000 nM	3800 nM	2630 nM	7240 nM	6170 nM
O=C(Nc1cccc2cccnc12)c1ccccn1	3470 nM	2000 nM	794 nM	> 10000 nM	871 nM
O[C@@H](CNCc1ccsc1C(F)(F)F)c1cc(Cl)c2c(c1)OCCO2	> 10000 nM	3470 nM	3160 nM	7240 nM	6460 nM
O=c1nc2n(nc1-c1ccccc1)C1(CCC1)Nc1ccccc1-2	> 10000 nM	1860 nM	759 nM	4070 nM	2820 nM
CC1(C)CCC(Nc2ccc(C(N)=O)nn2)CC1	> 10000 nM	> 10000 nM	490 nM	> 10000 nM	87.1 nM
O=C(Nc1[nH]c(=O)ncc1F)c1cccc2ccccc12	> 10000 nM	> 10000 nM	6.17 nM	1950 nM	10.5 nM
CN(C)CCN(C)c1ccc(Br)cc1NCc1cncn1C	> 10000 nM	2950 nM	2000 nM	3720 nM	3470 nM
Cc1cc(N(C)CCC2CC2)nc([C@H](C)N(C)CCC2CC2)n1	> 10000 nM	2190 nM	1380 nM	7940 nM	2400 nM
CC(C)O[C@@H]1CCN(C[C@H](O)c2ccc(C(F)(F)F)cc2)C1	> 10000 nM	2820 nM	2090 nM	3310 nM	3090 nM
CCCOc1cccc2c(NC3CCN(CCOC)CC3)ccnc12	> 10000 nM	1580 nM	1780 nM	3240 nM	2240 nM
CCCN1CCC(NCc2ccc(-c3cccc(Cl)c3Cl)o2)CC1	> 10000 nM	2630 nM	2630 nM	7080 nM	3550 nM
Cc1ccc(C)c(-n2cnc(=O)n2[C@H]2CCN(C3CC3)C2=O)c1	> 10000 nM	5750 nM	2950 nM	> 10000 nM	8320 nM
CC(C(=O)Nc1nccs1)N1CCCC(c2ccn[nH]2)C1 (stereo not given)	> 10000 nM	3090 nM	3090 nM	> 10000 nM	7240 nM
Cn1cncc1CC(=O)Nc1ccnc(NC(=O)OC(C)(C)C)c1	> 10000 nM	2140 nM	1230 nM	1780 nM	3800 nM
NC(=O)C(NC(=O)c1cccc(Cl)c1)C(N)=O	> 10000 nM	> 10000 nM	> 10000 nM	> 10000 nM	> 10000 nM
COC1CCCC1NC(=O)Nc1ncc(Br)cc1C (stereo not given)	> 10000 nM	2290 nM	2000 nM	6760 nM	1380 nM
OC(CNC1CCCNc2ccccc21)c1ccc(Cl)s1 (stereo not given)	> 10000 nM	3630 nM	2290 nM	2950 nM	3890 nM
COc1cc(C(=O)Nc2[nH]c(=O)ncc2F)ccc1Cl	> 10000 nM	> 10000 nM	5.89 nM	7760 nM	10 nM

Compound	IC50 at 72 h [1]	IC50 (Plasmodium falciparum [2])	IC50 (Plasmodium falciparum [3])	IC50 (Plasmodium falciparum [4])	IC50 (Plasmodium falciparum [5])
NC1CC(NCCc2cccc3cccnc23)c2ccccc21 (stereo not given)	> 10000 nM	5750 nM	2450 nM	5010 nM	7760 nM
CN(Cc1ccsc1)C(=O)c1cc2ccccc2[nH]1	> 10000 nM	> 10000 nM	> 10000 nM	> 10000 nM	> 10000 nM
Cc1cccc2ncnc(N(C)[C@@H](C)Cc3ccc(O)cc3)c12	> 10000 nM	2820 nM	1860 nM	2450 nM	3090 nM
Cc1ccc(C(F)(F)C(=O)NCCC(=O)NS(C)(=O)=O)cc1	> 10000 nM	> 10000 nM	2750 nM	> 10000 nM	447 nM
CC1(C)C(NCC(O)COc2ccc(F)c(F)c2)[C@@H]2CCC[C@@H]21 (stereo not given in full)	> 10000 nM	3240 nM	1780 nM	2950 nM	3240 nM
C[C@@H](CN)N(C)c1ccnc2cc(Br)cnc12	> 10000 nM	447 nM	513 nM	661 nM	562 nM
O=C(Nc1[nH]c(=O)ncc1F)c1cc(F)c(F)cc1Br	> 10000 nM	> 10000 nM	1.91 nM	501 nM	1.66 nM
Cc1cc(C(=O)N[C@@H](C)c2nc(-c3cccnc3)cs2)cc(O)n1	> 10000 nM	2400 nM	1740 nM	3390 nM	2240 nM
CC1CC(C(=O)Nc2[nH]c(=O)ncc2F)CC(C)(C)C1 (stereo not given)	> 10000 nM	> 10000 nM	2.04 nM	490 nM	3.31 nM
Cc1cc(NC(=O)c2ccccn2)n(-c2nc3ccccc3o2)n1	> 10000 nM	3160 nM	457 nM	> 10000 nM	3630 nM
Cc1ccccc1C(=O)Cc1ncc[nH]1	> 10000 nM	3890 nM	2290 nM	4900 nM	5750 nM
O=C(c1ccc2c(c1)OCO2)N1CCn2c1nc1ccccc12	> 10000 nM	> 10000 nM	1580 nM	513 nM	> 10000 nM
CCOC(=O)c1cc(F)cc(S(=O)(=O)Nc2ccnc3ncnn23)c1	> 10000 nM	> 10000 nM	5890 nM	1350 nM	> 10000 nM
CC(C)c1nc(C(=O)Nc2[nH]c(=O)ncc2F)cs1	> 10000 nM	> 10000 nM	1.95 nM	955 nM	2.14 nM
CN(C)c1noc(CN2CCc3ccc(F)cc3C2)n1	> 10000 nM	> 10000 nM	5010 nM	> 10000 nM	7240 nM
FC(F)(F)C1CN(c2nc(-c3ccccn3)nc3c2CCC3)C1	> 10000 nM	2290 nM	1290 nM	2450 nM	2450 nM
Cc1cc(C(=O)NC2CC(C)n3ccnc32)nn1C(C)C (stereo not given)	> 10000 nM	> 10000 nM	2450 nM	> 10000 nM	100 nM
Oc1cccc(CN[C@H]2CCCc3occc32)c1Cl	> 10000 nM	2750 nM	1580 nM	2040 nM	2750 nM
CC1CC(Nc2ncnc3cc(Br)ccc23)CCN1C (stereo not given)	> 10000 nM	1070 nM	1050 nM	1550 nM	1580 nM
